Peptide text beside a SMILES is read from it.
What was measured:
HLF cells = assay: Apoptosis by annexin V-FITC staining, flow cytometry; format: cell-based; conditions: calpain inhibitor 2 at 10 μM
Protocol: (§1) P53 was administered to the cells by the use of the replication defective adenoviral vector ACN53 described in Wills, et al., supra. The effect of varying concentrations of rAd-p53 (from […] to 2×10^9 rAd-p53 particles/ml of solution) was investigated in combination with CI-1 in a range of 5–20 μm. The effects of individual and combination treatment was determined in the in DLD1, RKO, HLF and SK-Hep1 cells was investigated in substantial accordance with the teaching of Examples 2 and 3 herein. The percentage of apoptotic cells was determined at 17 hours post treatment (with the exception of U87 cells (24 hours) and HeLa cells (68 hours)) with annexin V positive staining. The results are presented in graphical format in FIG. 3 of the attached drawings. In brief, the results were as follows:
To quantitate the increased efficacy of rAd-p53 induced cell killing in tumor cell lines in response to CI-1 treatment, HLF cells were infected with increasing concentrations of rAd-p53 with or without 10 μM CI-1, and assayed for percentage apoptotic cells by annexin V-FITC staining 42 hours post-treatment in substantial accordance with the teaching of Example 3 herein. […] No increase in annexin V-FITC positive cells was detected at 1×10^5 particles/ml rAd-p53 with or without 10 μM CI-1. At 1×10^6 particles/ml rAd-p53, the percentage apoptotic cells without CI-1 was 14%, while 40% of annexin V positive cells was detected when cell were treated with 10 μM CI-1. At a concentration of 1×10^7 ACN53 particles/ml, 17% annexin V positive without and 63% with 10 μM CI-1 was detected. At 1×10^8 particles/ml, 52% were annexin V positive without and 70% positive with inhibitor treatment. At a dose of 1×10^9 particles of rAd-p53, however, the percentage annexin V positive was about the same for both 77% without and 74% with 10 μM CI-1. […] concentration of rAd-p53 was sufficient to induce approximately 50% cell death, while only a 1×10^7 particle/ml concentration rAd-p53 was needed to induce approximately the same percentage of cell death when 10 μM CI-1 as added.
(§2) The effect of an inhibitor of μ-calpains, CI-1 (N-acetyl-leu-leu-norleucinal), was investigated for its ability to enhance p53 mediated apoptosis in tumor cell lines having p53+ and p53− status listed in Table1. Each cell line was treated with 5–50 μM CI-1 for 17–26 hours. To detect a G0/G1 block, bromodeoxyuridine (BrdU) incorporation followed by flow cytometric analysis was done 17 hours post-treatment as described in Example 4 herein. […] The results of these experiments are presented in FIGS. 1 and 2 of the attached drawings. In FIG. 1, each point on the graph represents percentage annexin V positive after background percentage (DMF alone) was subtracted.
(§3) An aliquot containing approximately 1×10^6 cells of each type was placed in a T-225 flask. The effect of varying concentrations of rAd-p53 (from 1×10^7 to 2×10^9ACN53 particles/ml of solution) was investigated in combination with CI-1 in a range of 5–20 μM. In each instance, the cell line was infected with 1×10^7–1×10^9 particles/ml of cell culture with the ACN53 using the empty cassette virus (ZZCB) as a control. In each instance, the cells were exposed to the virus for a period of one hour. At the end of this time, the virus was washed off the from the cells and fresh media containing an appropriate concentration of CI-1 was added.
HLF cells were infected at increasing log concentrations of rAd-p53 ranging from 1×10^5 to 1×10^9 for one hour at which time virus was washed off and replaced with fresh media (viral infection with no treatment) or with 10 μM calpain inhibitor 1. Cells were assayed for apoptosis by annexin V-FITC staining at 24 and 42 hours post-infection.
CI-1 was obtained from Boehringer-Mannheim Biochemicals (Indianapolis, Ind.). The CI-1 containing media was prepared as follows. CI-1 was diluted in dimethylformamide (DMF) to a concentration of 33.3 μM/μl. […]

SK-Hep1 cells = assay: as above; format: cell-based; conditions: calpain inhibitor 2 at 20 μM; endogenous wildtype p53
Protocol: as §1, §2, §3
CI-1 was obtained from Boehringer-Mannheim Biochemicals (Indianapolis, Ind.). The CI-1 containing media was prepared as follows. CI-1 was diluted in dimethylformamide (DMF) to a concentration of 33.3 μM/μl. The CI-1 solution in DMF was added to achieve a final concentration in the media of 5 or 10 μM final concentration of CI-1. An equivalent volume of DMF alone was added to the control cells. Calpain inhibitor 2, N-acetyl-leu—leu-methioninal (Boehringer Mannheim) was added to cell lines at 5–50 μM final concentration with or without rAd-p53 for 26 hours.
At a time of 17 (or 26 hours) post infection, the percentage of cells undergoing apoptosis was determined by convential apoptotic markers. Apoptosis was monitored visually by observing blebbed nuclei characteristic of apoptosis, by propidium iodide staining (using propidium iodide commercially available from Molecular Probes, Inc.) followed by flow cytometric analysis to look for subgenomic populations of cells, and by labeling cells with annexin V-FITC (commercially available from Boehringer Mannheim) in substantial accordance with the instructions provided by the manufacturer, followed by flow cytometric analysis on a FACScan Flow Cytometer (commercially available from Becton Dickinson).

## CSCC[C@@H](C=O)NC(=O)[C@H](CC(C)C)NC(=O)[C@H](CC(C)C)NC(C)=O [CI-2, N-acetyl-leu—leu-methioninal] (Ac-Leu-Leu-Met-aldehyde)
HLF cells
  effect on the induction of apoptosis in combination with rAd-p53: no significant effect
SK-Hep1 cells
  increase in annexin V-FITC positive cells: no significant increase

— patent publication US7001770B1, “Calpain inhibitors and their applications” (priority 1998, dated 2006)
